The values below come from ChEMBL document CHEMBL1131979, “Synthesis and SAR studies of 1-substituted-n-(4-alkoxycarbonylpiperidin-1-yl)alkanes as potent antiarrhythmic agents” (Bioorg Med Chem Lett, 1999).

The structures appear in SMILES notation. Activity calls are given as the source filed them. No cut-off for these calls is given here.

A short description of data set [1]: Lipophilicity was determined. Conditions: octanol/water. In kind it is physicochemical.
Data set [2] is filed under the species Cavia porcellus. The data set is described as follows: Antiarrhythmic effect expressed as percent reduction of the maximal rate of stimulation for antiarrhythmic activity in guinea pig auricle at 8 uM. In kind it is functional, Heart.
The species entered for data set [3] is Cavia porcellus. Nature of the data set: Antiarrhythmic effect expressed as percent reduction of the maximal rate of stimulation for antiarrhythmic activity in guinea pig auricle at 8 uM; NS means not significant. It counts as functional. Conditions: Heart.
For data set [4], the system named is Rattus norvegicus. Nature of the data set: Ventricular tachycardia (VT) in rats tested for in vivo Antiarrhythmic activity against aconitine induced arrhythmias at a dose of 10 mg/kg by iv administration. It counts as functional, Heart.
The subject of data set [5] is Rattus norvegicus. Nature of the data set: Cardiac arrest(CA) in rats tested for in vivo Antiarrhythmic activity against aconitine induced arrhythmias at a dose of 25 mg/kg by po administration. It counts as functional, Heart.
In data set [6] the test system is Cavia porcellus. Nature of the data set: Change in heart rate(HR) in guinea pig tested for in vivo antiarrhythmic activity against ouabain induced cardiac arrhythmias at a dose of 10 mg/kg by iv administration; value ranges from 17-30%. It counts as functional.
The subject of data set [7] is Rattus norvegicus. The data set is described as follows: Appearance of ectopic beat (EA) in rats tested for in vivo Antiarrhythmic activity against aconitine induced arrhythmias at a dose of 10 mg/kg by iv administration. It counts as functional, Heart.
Data set [8] has as its system Cavia porcellus. Nature of the data set: Appearance of ectopic beat (EA) in guinea pig tested for in vivo antiarrhythmic activity against ouabain induced cardiac arrhythmias at a dose of 20 mg/kg by po administration. It counts as functional, Heart.
Data set [9] relates to Rattus norvegicus. The data set is described as follows: Change in heart rate(HR) in rats tested for in vivo antiarrhythmic activity against aconitine induced arrhythmias at a dose of 25 mg/kg by po administration; value ranges from 16-34. It counts as functional.
Data set [10] concerns Rattus norvegicus. Nature of the data set: Cardiac arrest(CA) in rats tested for in vivo Antiarrhythmic activity against aconitine induced arrhythmias at a dose of 10 mg/kg by iv administration. It counts as functional, Heart.
For data set [11], the system named is Rattus norvegicus. The data set is described as follows: Change in heart rate(HR) in rats tested for in vivo antiarrhythmic activity against aconitine induced arrhythmia at a dose of 10 mg/kg by iv administration; value ranges from 16-34. In kind it is functional.
Data set [12] has as its system Rattus norvegicus. The data set is described as follows: Ventricular fibrillation (VF) in rats tested for in vivo Antiarrhythmic activity against aconitine induced arrhythmias at a dose of 10 mg/kg by iv administration. It counts as functional, Heart.
In data set [13] the test system is Cavia porcellus. Nature of the data set: Cardiac arrest(CA) in guinea pig tested for in vivo antiarrhythmic activity against ouabain induced cardiac arrhythmias at a dose of 10 mg/kg by iv administration. It counts as functional, Heart.
Data set [14] deals with Cavia porcellus. Nature of the data set: Cardiac arrest(CA) in […] guinea pig tested for in vivo antiarrhythmic activity against ouabain induced cardiac arrhythmias at a dose of 20 mg/kg by po administration. In kind it is functional, Heart.
For data set [15], the system named is Cavia porcellus. The data set is described as follows: Ventricular fibrillation (VF) in guinea pig tested for in vivo antiarrhythmic activity against ouabain induced cardiac arrhythmias at a dose of 10 mg/kg by iv administration. It counts as functional, Heart.
Data set [16] has as its system Rattus norvegicus. The data set is described as follows: Appearance of ectopic beat (EA) in rats tested for in vivo Antiarrhythmic activity against aconitine induced arrhythmias at a dose of 25 mg/kg by po administration. In kind it is functional, Heart.
The subject of data set [17] is Rattus norvegicus. Nature of the data set: Ventricular tachycardia (VT) in rats tested for in vivo Antiarrhythmic activity against aconitine induced arrhythmias at a dose of 25 mg/kg by po administration. It counts as functional, Heart.
The subject of data set [18] is Cavia porcellus. Nature of the data set: Change in heart rate(HR) in guinea pig tested for in vivo antiarrhythmic activity against ouabain induced cardiac arrhythmias at a dose of 20 mg/kg by po administration; value ranges from 10-35%. In kind it is functional.
Data set [19] has as its system Rattus norvegicus. Nature of the data set: Ventricular fibrillation (VF) in rats tested for in vivo Antiarrhythmic activity against aconitine induced arrhythmias at a dose of 25 mg/kg by po administration. It counts as functional, Heart.
For data set [20], the system named is Cavia porcellus. Nature of the data set: Appearance of ectopic beat (EA) in guinea pig tested for in vivo antiarrhythmic activity against ouabain induced cardiac arrhythmias at a dose of 10 mg/kg by iv administration. In kind it is functional, Heart.
In data set [21] the test system is Cavia porcellus. The data set is described as follows: Ventricular fibrillation (VF) in guinea pig tested for in vivo antiarrhythmic activity against ouabain induced cardiac arrhythmias at a dose of 20 mg/kg by po administration. It counts as functional, Heart.
Data set [22] relates to Cavia porcellus. The data set is described as follows: Change in heart rate(HR) in guinea pig tested for in vivo antiarrhythmic activity against ouabain induced cardiac arrhythmias at a dose of 10 mg/kg by iv administration; value ranges from 17-18%. In kind it is functional.
Data set [23] relates to Rattus norvegicus. Nature of the data set: Change in heart rate(HR) in rats tested for in vivo antiarrhythmic activity against aconitine induced arrhythmias at a dose of 10 mg/kg by iv administration; value ranges from 18-30%. In kind it is functional.
Data set [24] relates to Cavia porcellus. The data set is described as follows: Change in heart rate(HR) in guinea pig tested for in vivo antiarrhythmic activity against ouabain induced cardiac arrhythmias at a dose of 20 mg/kg by po administration; value ranges from 18-27%. It counts as functional.
Data set [25] has as its system Rattus norvegicus. Nature of the data set: Change in heart rate(HR) in rats tested for in vivo antiarrhythmic activity against aconitine induced arrhythmias at a dose of 25 mg/kg by po administration; value ranges from 11-17%. In kind it is functional.

In the case of `COC(=O)C1CCN(CCCN2CCN(c3ccccc3)CC2)CC1`, the “Log P/(100-P)” value in data set [1] is -1.195. Further, the Inhibition in the data set listed under Cavia porcellus [2] was 6%.
In the case of `COC(=O)C1CCN(CCCN2CCN(c3ccccn3)CC2)CC1`, the inhibition result in the data set filed under Cavia porcellus [3] was “inactive”.
Take `COC(=O)C1CCN(CCCC(=O)c2ccc(F)cc2)CC1`: the “Amount of Acotine used” value with Rattus norvegicus [4] was 231.27; in the data set on Rattus norvegicus [5] it was 457.72; in the data set with Rattus norvegicus [7], 132.79; in the data set with Rattus norvegicus [10], 544.28; with Rattus norvegicus [12], 373.36; in the data set on Rattus norvegicus [16] it was 159.29. Besides, the “Amount of Acotine used” value stood at 226.74 in the data set on Rattus norvegicus [17] and 356.09 in the data set with Rattus norvegicus [19]. Further, the “Change in heart rate” value is on record as 17% in the data set with Cavia porcellus [6], 16% in the data set with Rattus norvegicus [9], 16% with Rattus norvegicus [11] and 10% in the data set on Cavia porcellus [18]. Further, the “Amount of Ouabain used” value in the data set on Cavia porcellus [8] stood at 124.56; with Cavia porcellus [13] it was 175.76; with Cavia porcellus [14], 187.05; in the data set with Cavia porcellus [15] it was 138.04; in the data set with Cavia porcellus [20], 101.35; with Cavia porcellus [21], 153.65. The “Log P/(100-P)” value in data set [1] is recorded as -0.493. This compound also registered an Inhibition in the data set listed under Cavia porcellus [2] of 24.33%.
Take `C=C[C@H]1CN2CC[C@H]1C[C@@H]2[C@@H](O)c1ccnc2ccc(OC)cc12.C=C[C@H]1CN2CC[C@H]1C[C@@H]2[C@@H](O)c1ccnc2ccc(OC)cc12.O.O.O=S(=O)(O)O` [QUINIDINE SULFATE]: the “Amount of Acotine used” value worked out at 252.72 in the data set on Rattus norvegicus [4]; 581.06 in the data set with Rattus norvegicus [5]; 156.24 in the data set with Rattus norvegicus [7]; 523.64 in the data set on Rattus norvegicus [10]; 370 in the data set with Rattus norvegicus [12]; 173.66 with Rattus norvegicus [16]. Moreover, the figures for the “Amount of Acotine used” value in the data set on Rattus norvegicus [17] and in the data set with Rattus norvegicus [19] were 237.02 and 416.36, respectively. Besides, the “Change in heart rate” value is 17% with Cavia porcellus [22], 18% with Rattus norvegicus [23], 18% in the data set on Cavia porcellus [24] and 11% with Rattus norvegicus [25]. The “Amount of Ouabain used” value turned out to be 138.99 with Cavia porcellus [8]; 187.59 in the data set on Cavia porcellus [13]; 225.31 with Cavia porcellus [14]; 167.78 in the data set on Cavia porcellus [15]; 128.33 in the data set with Cavia porcellus [20]; 201.34 in the data set with Cavia porcellus [21]. For the same compound, the Inhibition in the data set listed under Cavia porcellus [2] worked out at 29.68%.
As for `CCCOC(=O)C1CCN(CCCC(=O)c2ccc(F)cc2)CC1`, the “Log P/(100-P)” value in data set [1] was -0.954. The Inhibition in the data set listed under Cavia porcellus [2] is 10%.
Take `COC(=O)C1CCN(CCCN2CCN(c3ccc(F)cc3)CC2)CC1`: the inhibition result in the data set filed under Cavia porcellus [3] was “inactive”.
With `CC(C)OC(=O)C1CCN(CCCC(=O)c2ccc(F)cc2)CC1`, the “Log P/(100-P)” value in data set [1] is listed as -0.865. In the data set listed under Cavia porcellus [2], this compound displayed an Inhibition of 12%.
Take `CCOC(=O)C1CCN(CCCC(=O)c2ccc(F)cc2)CC1`: the “Log P/(100-P)” value in [1] is on record as -0.462. For the same compound, the Inhibition in the data set listed under Cavia porcellus [2] turned out to be 25.66%.
The like results for `COC(=O)C1CCN(CCCOc2cccc(NC(C)=O)c2)CC1` were, in that order, -1.123 and 7%.
In the same order, the values of `COC(=O)C1CCN(CCC(=O)N2CCN(c3ccc(F)cc3)CC2)CC1` are -0.954 and 10%.
